In the SangsterLogP compilation:

conditions: pH 7.4

logD | SMILES
2.4 | CS(=O)(=O)C1(c2cc(N3CCOCC3)nc(-c3cccc4[nH]ccc34)n2)CCOCC1
2.82 | COc1cc(OC)c(S(=O)(=O)N2c3ccccc3CCC2C)cc1NC(=O)CSc1ccncc1 (configuration not stated)
3.49 | C[C@@H](Oc1ccc(S(C)(=O)=O)cc1C(=O)N1CCN(c2ncc(C(F)(F)F)cc2F)CC1)C(F)(F)F
2.93 | CC(C)(C)OC(=O)N1CCN(c2ncc(OCc3ccc(S(C)(=O)=O)cc3)nn2)CC1
1.79 | N#CCNC(=O)[C@@H]1CCCC[C@H]1C(=O)N1CCN(c2ccc(C#N)cc2)CC1
1.65 | CCNC(=O)c1cc2c(-n3ccc(C(F)(F)F)n3)c(-c3cncc(-c4n[nH]c(=O)o4)c3)cnc2[nH]1
2.77 | CCS(=O)(=O)c1ccc(-c2cc(C(F)(F)F)ccc2OCC(N)=O)c(C)c1
2.57 | Cc1ncc(-c2ccnc(Nc3ccc(N4CCN(S(C)(=O)=O)CC4)cc3)n2)n1C(C)C
2.13 | N#CC1(NC(=O)[C@@H]2CCCC[C@H]2C(=O)N2CCc3[nH]c4ncccc4c3C2)CC1
3.7 | Cc1cc(COc2cnc(N3CCN(C(=O)OC(C)(C)C)CC3)nc2)ccn1
1.9 | CC(C)(C#N)c1cnc(N2CCN(C(=O)[C@@H]3CCCC[C@H]3C(=O)NC3(C#N)CC3)CC2)s1
1.93 | Cc1nnc(C)c2cc(N3CCN(C(=O)[C@@H]4CCCC[C@H]4C(=O)NC4(C#N)CC4)[C@H](C)C3)ccc12
1.7 | CS(=O)(=O)c1cccc2c3c([nH]c12)CCN(C(=O)[C@@H]1CCCC[C@H]1C(=O)NC1(C#N)CC1)C3
3.5 | C[C@@H]1CN(C(=O)OC(C)(C)C)CCN1c1ncc(OCC2CCN(S(C)(=O)=O)CC2)cn1
2.19 | Cc1ncc(-c2nc(Nc3ccc(N4CCN(C(=O)CO)CC4)cc3)ncc2F)n1C(C)C
1.03 | COc1cc(OC)c(S(=O)(=O)NCc2ccccc2N2CCC(CO)CC2)cc1NC(C)=O
0.67 | CS(=O)(=O)c1ccc(N2CCN(C(=O)[C@@H]3CCCC[C@H]3C(=O)NCC#N)CC2)cc1
1.9 | CN1CCC(c2cc(N3CCOCC3)nc(-c3cccc4[nH]ccc34)n2)(S(C)(=O)=O)CC1

logD | SMILES
1.6 | N#CC1(NC(=O)[C@@H]2CCCC[C@H]2C(=O)N2CCN(c3nc4ccncc4s3)CC2)CC1
2.21 | CCNC(=O)c1cc2c(-n3ccc(C(F)(F)F)n3)c(-c3cncc(C(=O)NC)c3)cnc2[nH]1
1.7 | CS(=O)(=O)Cc1cc(N2CCOCC2)nc(-c2cccc3[nH]ccc23)n1
0.99 | Cc1nc2nc[nH]n2c(=O)c1CCOC(=O)c1ccccc1F
0.16 | Cc1nc2nc[nH]n2c(=O)c1CCOC(=O)c1c(F)cccc1F
1.66 | N#CC1(NC(=O)[C@@H]2CCCC[C@H]2C(=O)N2CCN(c3nc4cnccc4s3)CC2)CC1
1.4 | N#CC1(NC(=O)[C@@H]2CCCC[C@H]2C(=O)N2CCN(c3nc4ncccc4s3)CC2)CC1
3.13 | CS(=O)(=O)c1cccc(Nc2nccc(Nc3c(Cl)ccc4c3OCO4)n2)c1
2.49 | COc1cc(OC)c(S(=O)(=O)N2c3ccccc3CCC2C)cc1NC(=O)Cc1ccnc(F)c1 (configuration not stated)
2.27 | CCCSc1ncccc1C(=O)NC1[C@@H]2CC3C[C@H]1CC(O)(C3)C2 (some centres not stated)
2.99 | CCCSc1c(C(=O)NC2CCCCC2)cnn1C
3.1 | C[C@@H]1CN(c2nc(C(F)(F)F)no2)CCN1c1ncc(OCc2ccncc2C#N)cn1
1.97 | O=c1cc(O)c2c(=O)n(Cc3ccccc3)c3ccccc3c2o1
3.94 | O=C(Nc1cccc2cccnc12)C1CCC(N2C(=O)[C@@H]3[C@@H]4CC[C@@H](C4)[C@@H]3C2=O)CC1 (some centres not stated)
3.1 | C[C@@H]1CN(c2noc(C3CC3)n2)CCN1c1ncc(OCc2ccncc2C#N)cn1
3.8 | Cc1cnccc1COc1cnc(N2CCN(C(=O)OC(C)(C)C)CC2)nc1
1.4 | COc1ccc(N2CCN(C(=O)[C@@H]3CCCC[C@H]3C(=O)NC3(C#N)CC3)CC2)cc1OC
2.36 | COc1ccc(N(C(=O)c2ccoc2Cl)C(C(=O)NC[C@@H](C)O)c2ccccc2F)c(OC)c1 (some centres not stated)

SMILES | logD
C[C@@H](c1ncncc1F)[C@](O)(Cn1cncn1)c1ccc(F)cc1F | 1.7
